Reference: US10538516B2, “Oxadiazole derivative and pharmaceutical containing same” (National Center for Geriatrics and Gerontology, priority 2015, dated 2020)
Structures can show the parent of a compound that is named as a salt. Where two headings read alike, the source gives them in different places.

Target: T1, GAβ-dependent amyloid fibril formation (Human Aβ1-40 + GM1-containing liposome) (Homo sapiens, UniProt P05067)
T1 construct: Human Aβ1-40 (cat. #4307-v, prepared by Peptide Institute); purchased Peptide Institute 4307-v
T1 sequence (P05067 672-711 limits assumed): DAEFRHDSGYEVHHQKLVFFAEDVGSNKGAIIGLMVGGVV
Test: Thioflavin T (ThT) assay of GAβ-dependent amyloid fibril formation (Aβ1-40 with GM1-containing liposome)
Type: biochemical
Outline: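 Human Aβ1-40 (75 μM stock) pre-incubated 10 min at room temperature with compound (75 or 15 μM solution), then GM1-containing cholesterol/sphingomyelin liposome added and incubated 37° C, 18 hours. Fibrils quantified by ThT fluorescence (ex 430/em 490 nm, pH 8.5 glycine buffer); inhibition as ratio to compound-free control.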

[1] = inhibition rate against amyloid fibril formation, final concentration of the compound 25 μM, read-out: Inhibitory activity ABC evaluation
[2] = @25 μM, read-out: ThT Inhibitory activity (% inhibition)
[3] = final concentration of the compound 25 μM, ratio of ThT fluorescence intensity with/without compound, 37° C. for 18 hours, read-out: inhibition rate against amyloid fibril formation (inhibitory activity on a scale of A to C)

Compound | inhibition at 25 µM [1] | other results
O=C(c1ccc(Cl)cc1)N1CCC[C@H]1c1nc(-c2ccc(OC(F)(F)F)cc2)no1 [Compound 55, (S)-(4-chlorophenyl) (2-[3-{4-(trifluoro-methoxy)phenyl)-1,2,4-oxadiazol-5-yl}pyrrolidin-1-yl)methanone] | 40 to 80% | –
O=C(NC(CN1CCOCC1)c1nnc(-c2ccc(OC(F)(F)F)cc2)o1)c1ccc(Cl)cc1 (stereo not drawn) [Compound 117, 4-chloro-N-(2-morpholino-1-(5-(4-(trifluoro-methoxy)phenyl)-1,3,4-oxadiazol-2-yl)ethyl) benzamide] | 40 to 80% | –
Nc1[nH]cnc1-c1noc([C@H](CO)NC(=O)c2ccc(F)cc2)n1 [Compound 258, N-[(1S)-1-[3-(5-amino-1H-imidazol-4-yl)-1,2,4-oxadiazol-5-yl]-2-hydroxyethyl]-4-fluorobenzamide] | 40 to 80% | –
O=C(N[C@H](CO)c1nc(-c2ccc(C(F)(F)F)cc2)no1)c1ccc(Cl)cc1 [Compound 214, 4-chloro-N-[(1R)-2-hydroxy-1-{3-[4-(trifluoromethyl)phenyl]-1,2,4-oxadiazol-5-yl}ethyl]benzamide] | 40 to 80% | –
O=C(N[C@@H](CO)c1nc(-c2ccc(C(F)(F)F)cc2)no1)c1ccc2ccccc2c1 [Compound 202, N-[(1S)-2-hydroxy-1-{3-[4-(trifluoromethyl)phenyl]-1,2,4-oxadiazol-5-yl}ethyl]naphthalene-2-carboxamide] | 40 to 80% | –
CNC(=O)C[C@H](NC(=O)c1ccc(Cl)cc1)c1nc(-c2ccc(OC(F)(F)F)cc2)no1 [Compound 88, (S)-4-chloro-N-(3-(methylamino)-3-oxo-1-[3-{4-(trifluoromethoxy)phenyl}-1,2,4-oxadiazol-5-yl]propyl) benzamide] | < 40% | –
O=C(N[C@@H](CO)c1nc(-c2ccc(OC(F)(F)F)cc2)no1)c1ccc(O)c(Cl)c1 [Compound 98, (S)-3-chloro-4-hydroxy-N-(2-hydroxy-1-[3-{4-(trifluoromethoxy)phenyl}-1,2,4-oxadiazol-5-yl]ethyl)benzamide] | < 40% | –
COc1ccc(-c2noc(C3CC(=O)N(c4ccc(Cl)cc4)C3)n2)cc1F (stereo not drawn) [Compound 42] | 40 to 80% | –
CN(C)c1ccc(C(=O)N[C@@H](CO)c2nc(-c3ccc(C(F)(F)F)cc3)no2)cc1 [Compound 209, 4-(dimethylamino)-N-[(1S)-2-hydroxy-1-{3-[4-(trifluoromethyl)phenyl]-1,2,4-oxadiazol-5-yl}ethyl]benzamide] | > 80% | –
O=C1CC(c2nc(-c3ccc(OC(F)(F)F)cc3)no2)CN1Cc1ccc(Cl)cc1 (stereo not drawn) [Compound 64, 1-(4-chlorobenzyl)-4-{3-[4-(trifluoromethoxy)phenyl]-1,2,4-oxadiazol-5-yl}pyrrolidin-2-one] | 40 to 80% | –
O=C1CC(c2nnc(-c3ccc(OC(F)(F)F)cc3)o2)CN1c1ccc(Cl)cc1 (stereo not drawn) [Compound 103, 1-(4-chlorophenyl)-4-{5-[4-(trifluoromethoxy)phenyl]-1,3,4-oxadiazol-2-yl}pyrrolidin-2-one] | 40 to 80% | –
O=C(N[C@@H](CO)c1nc(-c2cccc(C(F)(F)F)c2)no1)c1cc2ccccc2[nH]1 [Compound 223, N-[(1S)-2-hydroxy-1-{3-[3-(trifluoromethyl)phenyl]-1,2,4-oxadiazol-5-yl}ethyl]-1H-indole-2-carboxamide] | 40 to 80% | –
O=C(N[C@@H](CO)c1nc(-c2ccccc2C(F)(F)F)no1)c1ccc(F)cc1 [Compound 181, 4-fluoro-N-[(1S)-2-hydroxy-1-{3-[2-(trifluoromethyl)phenyl]-1,2,4-oxadiazol-5-yl}ethyl]benzamide] | 40 to 80% | inhibition at 25 µM [2]: 73%
CN(C(=O)c1ccc(Cl)cc1)C(C)(C)c1nc(-c2ccc(OC(F)(F)F)cc2)no1 [Compound 21, 4-chloro-N-methyl-N-(2-{3-[4-(trifluoromethoxy)phenyl]-1,2,4-oxadiazole-5-yl}propan-2-yl)benzamide] | < 40% | –
C[Si](C)(C)c1ccc(-c2noc([C@H](CO)NC(=O)c3ccc(F)cc3)n2)cc1 [Compound 224, 4-fluoro-N-[(1S)-2-hydroxy-1-{3-[4-(trimethylsilyl)phenyl]-1,2,4-oxadiazol-5-yl}ethyl]benzamide] | > 80% | –
O=C(NC(CO)c1nc(-c2ccc(C(F)(F)F)cc2)no1)c1n[nH]c2ccccc12 (stereo not drawn) [Compound 186, N-(2-hydroxy-1-{3-[4-(trifluoromethyl)phenyl]-1,2,4-oxadiazol-5-yl}ethyl)-1H-indazole-3-carboxamide] | 40 to 80% | –
O=C(N[C@@H](CO)c1nc(-c2ccc(CF)cc2)no1)c1ccccc1 [Compound 162, N-[(1S)-1-{3-[4-(fluoromethyl)phenyl]-1,2,4-oxadiazol-5-yl}-2-hydroxyethyl] benzamide] | 40 to 80% | –

Compound | inhibition at 25 µM [1] | other results
O=C(N[C@@H](CO)c1nc(-c2csc(Cl)c2)no1)c1ccc(F)cc1 [Compound 227] | 40 to 80% | –
Oc1ccc(-c2noc(C(O)Cc3c[nH]c4ccccc34)n2)cc1 (stereo not drawn) [Compound 89, 4-[5-{1-hydroxy-2-(1H-indol-3-yl)ethyl}-1,2,4-oxadiazol-3-yl]phenol] | 40 to 80% | –
O=C(N[C@@H](CO)c1nc(-c2ccc(O)cc2)no1)c1ccccc1 [Compound 146, N-[(1S)-2-hydroxy-1-[3-(4-hydroxy-phenyl)-1,2,4-oxadiazol-5-yl]ethyl]benzamide] | > 80% | inhibition at 25 µM [2]: 87%
O=C(N[C@@H](CO)c1nc(-c2ccc(OC(F)(F)F)cc2)no1)c1ccc(Cl)cc1 [Compound 39, (S)-4-chloro-N-(2-hydroxy-1-{3-[4-(trifluoromethoxy)phenyl]-1,2,4-oxadiazol-5-yl}ethyl)benzamide] | > 80% | inhibition at 25 µM [2]: 98%; inhibition at 25 µM [3]: > 80%
CN(Cc1cccc(F)c1)C(=O)CCc1nc(-c2ccc(O)cc2)no1 [Compound 14, N-(3-fluorobenzyl)-3-{3-(4-hydroxyphenyl)-1,2,4-oxadiazol-5-yl}-N-methylpropanamide] | < 40% | –
O=C(N[C@@H](CO)c1nc(-c2ccc(OC(F)(F)F)cc2)no1)c1c[nH]c2cc(Cl)ccc12 [Compound 76, (S)-6-chloro-N-(2-hydroxy-1-[3-{4-(trifluoro-methoxy)phenyl}-1,2,4-oxadiazol-5-yl}ethyl)-1H-indole-3-carboxamide] | 40 to 80% | –
O=C(N[C@@H](CO)c1nc(-c2ccc(C(F)(F)F)cc2)no1)c1ccc(Cl)cc1 [Compound 129, (S)-4-chloro-N-(2-hydroxy-1-(3-(4-(tri-fluoromethyl)phenyl)-1,2,4-oxadiazol-5-yl)ethyl)benzamide] | > 80% | inhibition at 5 µM (@5 μM, read-out: ThT Inhibitory activity (% inhibition)): 68%; inhibition at 25 µM [2]: 86%; inhibition at 25 µM [3]: > 80%
O=C(N[C@@H](CO)c1nc(-c2cc(Cl)sc2Cl)no1)c1ccc(F)cc1 [Compound 231, N-[(1S)-1-[3-(2,5-dichlorothiophen-3-yl)-1,2,4-oxadiazol-5-yl]-2-hydroxyethyl]-4-fluorobenzamide] | 40 to 80% | –
N[C@@H](Cc1c[nH]c2ccccc12)c1nnc(-c2ccc(OC(F)(F)F)cc2)o1 [Compound 110, (S)-2-(1H-indol-3-yl)-1-(5-(4-(trifluoro-methoxy)phenyl)-1,3,4-oxadiazol-2-yl) ethan-1-amine hydrochloride] | 40 to 80% | –
O=C(N[C@@H](CO)c1nnc(-c2ccc(OC(F)(F)F)cc2)o1)c1ccc(Cl)cc1 [Compound 104, (S)-4-chloro-N-(2-hydroxy-1-{5-[4-(trifluoromethoxy)phenyl]-1,3,4-oxadiazol-2-yl}ethyl)benzamide] | 40 to 80% | inhibition at 25 µM [2]: 75%
CN(C(=O)CCc1nc(-c2ccc(OC(F)(F)F)cc2)no1)c1cccc(Cl)c1 [Compound 11, N-(3-chlorophenyl)-N-methyl-3-[3-{4-(trifluoromethoxy)phenyl}-1,2,4-oxadiazol-5-yl]propanamide] | 40 to 80% | –
O=C(c1ccc(Cl)cc1)N1C[C@H](O)C[C@H]1c1nc(-c2ccc(OC(F)(F)F)cc2)no1 [Compound 82, (4-chlorophenyl) ((2S,4R)-4-hydroxy-2-[3-{4-(trifluoro-methoxy)phenyl}-1,2,4-oxadiazol-5-yl]pyrrolidin-1-yl)methanone] | – | Inhibitory activity ABC evaluation (inhibition rate against amyloid fibril formation, final concentration of the compound 25 μM, 25 µM): C (the inhibition rate of less than 40% was evaluated as C)
NC(=O)C[C@H](NC(=O)c1ccc(Cl)cc1)c1nc(-c2ccc(OC(F)(F)F)cc2)no1 [Compound 86, (S)-N-(3-amino-3-oxo-1-{3-[4-(trifluoromethoxy)phenyl]-1,2,4-oxadiazol-5-yl}propyl)-4-chlorobenzamide] | < 40% | –
O=C(N[C@@H](CO)c1nc(-c2cccc(C(F)(F)F)c2)no1)c1ccc(F)c(Cl)c1 [Compound 242, 3-chloro-4-fluoro-N-[(1S)-2-hydroxy-1-{3-[3-(trifluoromethyl)phenyl]-1,2,4-oxadiazol-5-yl}ethyl]benzamide] | 40 to 80% | inhibition at 25 µM [2]: 59%
O=C(NC(CNCCO)c1nnc(-c2ccc(OC(F)(F)F)cc2)o1)c1ccc(Cl)cc1 (stereo not drawn) [Compound 119, 4-chloro-N-(2-((2-hydroxyethyl)amino)-1-(5-(4-(trifluoro-methoxy)phenyl)-1,3,4-oxadiazol-2-yl)ethyl) benzamide] | 40 to 80% | –
O=C(N[C@@H](CO)c1nc(-c2ccc(C(F)(F)F)cc2)no1)c1cn2ccccc2n1 [Compound 240, N-[(1S)-2-hydroxy-1-{3-[4-(trifluoromethyl)phenyl]-1,2,4-oxadiazol-5-yl}ethyl]imidazo[1,2-a]pyridine-2-carboxamide] | < 40% | –
